Key:
[1] = molecular target: T1, 2-oxoglutarate/malate translocator, envelope membrane of spinach chloroplasts (Spinacia oleracea, UniProt Q41364); experiment: Reconstituted malate transport activity, envelope membrane proteins of spinach chloroplasts in liposomes; assay type: biochemical; conditions: for transport activity, percentage of activity measured with malate-preloaded liposomes: envelope membrane of spinach chloroplasts, liposomes preloaded with the indicated dicarboxylate, standard deviation in brackets
T1 construct: it is cleaved during the import process by a specific protease; the mature protein (m) is formed; from tissue; host or cells: spinach chloroplast envelope membranes
T1 sequence (Q41364 94-569): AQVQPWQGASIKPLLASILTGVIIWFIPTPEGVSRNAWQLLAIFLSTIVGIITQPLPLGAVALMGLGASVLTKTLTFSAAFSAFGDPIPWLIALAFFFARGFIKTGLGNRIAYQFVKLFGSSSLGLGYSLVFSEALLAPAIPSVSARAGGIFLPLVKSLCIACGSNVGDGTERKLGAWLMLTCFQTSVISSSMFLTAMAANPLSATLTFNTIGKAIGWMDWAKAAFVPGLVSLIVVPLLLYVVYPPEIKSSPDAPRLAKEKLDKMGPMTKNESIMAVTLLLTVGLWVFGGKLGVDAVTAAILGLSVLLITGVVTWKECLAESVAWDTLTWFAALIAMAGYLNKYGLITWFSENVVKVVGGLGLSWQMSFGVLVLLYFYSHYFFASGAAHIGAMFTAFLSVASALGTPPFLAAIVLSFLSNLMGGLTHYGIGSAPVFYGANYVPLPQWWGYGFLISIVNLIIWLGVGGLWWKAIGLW
Description: (§1) Yeast cells transformed with pEVP11-211 plasmid (see FIG. 2A, SP-DC3 cells) were grown in minimum essential medium up to an optical density of 1.0 at 600 nm and harvested by centrifugation at 3,000×g for 5 minutes. The cells were disrupted by vigorously shaking the mixture with 1/2 vol. (based on the cells) glass beads and glass beads and cell debris were separated by centrifugation (600 g for 1 minute). The supernatant was adjusted to a concentration of 0.5% (weight/volume) Triton X-100, an equal volume of liposomes was added to the mixture and the resulting proteoliposomes were immediately frozen in liquid nitrogen. The liposomes were previously prepared by sonification of soy bean phospholipid (20 mg/ml for 10 minutes at 4° C. in the presence of 200 mM tricine NaOH (pH 7.6), 40 mM malate and 60 mM potassium gluconate. After thawing of the proteoliposomes and sonification of the suspension with 10 pulses a 1 s the proteoliposomes were separated from the surrounding medium by size exclusion chromatography on Sephadex G-25 which had been equilibrated with 10 mM tricine NaOH (pH 7.6), 100 mM sodium gluconate and 50 mM potassium gluconate. The eluted proteoliposomes were used for measuring malate transport activity. The measurement was carried out according to the "inhibitor stop" method described by Menzlaff and Flugge (1993, Biochim. Biophys. Acta 1147:13-18).
Whole yeast protein, envelope membrane proteins and the purified
2oxyoglutarate/malate translocator were reconstituted in liposomes which
were preloaded with the indicated dicarboxylates. The transport activitie
were measured as described by Menzlaff and Flugge (Biochim. Biophys. Acta
1993, 1147: 13-18) and are indicated in the percentage of activity
measured with malatepreloaded liposomes. The standard deviations are
indicated in brackets. The 100% transport activities (nMol/mg # protein
per minute) were 0.8 (recombinant protein), 21.4 (envelope membranes) and
263 (purified translocator protein).

[2] = molecular target: T2, recombinant 2-oxoglutarate/malate translocator (transformed SP-DC3 cells) (Spinacia oleracea, UniProt Q41364); experiment: Reconstituted malate transport activity (inhibitor stop method), recombinant protein from transformed SP-DC3 yeast cells in liposomes; assay type: biochemical, spinach (expressed in Schizosaccharomyces pombe); conditions: for transport activity, percentage of activity measured with malate-preloaded liposomes: recombinant protein (transformed SP-DC3 cells), liposomes preloaded with the indicated dicarboxylate, standard deviation in brackets
T2 construct: made in house; host or cells: Schizosaccharomyces pombe (SP-DC3 cells, plasmid pEVP11-211)
T2 sequence (Q41364 94-569): T1 sequence (Q41364 94-569)
Description: as §1
The malate transport activity in the pEVP11-211 transformants was compared with the malate transport activity of transformants that were merely transformed with the vector pEVP11 without the 211 insert.

[3] = tested on: protein import into intact spinach chloroplasts; experiment: Import of in vitro translated translocator precursor protein into intact spinach chloroplasts (SDS-PAGE, fluorography); conditions: light conditions, 10 μM CCCP (lane 8, FIG. 3)
Description: FIG. 3: Targeting of the 2-oxoglutarate/malate translocator precursor protein to the chloroplasts and energy-dependent insertion of the mature protein in the inner envelope membrane
SDS polyacrylamide gel electrophoresis was carried out as described in Example 6:
Lane 8: plus decoupling agent (10 μM CCCP) Lane 9: plus 2 mM ATP; protease-pretreated chloro-plasts (30 μg/ml)
The in vitro transcription of plasmid pBSC-211 which was linearized with SmaI was carried out using T3 RNA polymerase according to the instructions of the manufacturer (Pharmacia). Subsequent in vitro translation was carried out in the reticulocyte lysate (Boehringer-Mannheim). The post-ribosomal supernatant was used for protein transports in intact spinach chloroplasts. The experiment was carried out in the dark as well as in the light; the preparation contained import buffer (Flugge et al., 1989, EMBO J. 8:39-46), intact spinach chloroplasts (corresponding to 200 […]) and various additives indicated in the legend to FIG. 3 (entire volume: […]). After 15 minutes at 25° C. the chloroplasts were washed and the envelope membranes […] (Flugge et al., 1989, EMBO J. 8:39-46) […]. They were analyzed in a SDS polyacrylamide gel electrophoresis (Laemmli, 1970, Nature 227:680-685) and subsequent fluorography (Bonner and Laskey, 1974, Eur. J. Biochem. 46:84-88) (FIG. 3). […]

[4] = tested on: purified 2-oxoglutarate/malate translocator protein; conditions: cited from earlier work; for transport activity, percentage of activity measured with malate-preloaded liposomes: liposomes preloaded with the indicated dicarboxylate

Structure (SMILES) | transport activity, percentage of activity measured with malate-preloaded liposomes [1] | transport activity, percentage of activity measured with malate-preloaded liposomes [2] | protein import into chloroplasts [3] | transport activity, percentage of activity measured with malate-preloaded liposomes [4] | 100% transport activity ([1]; malate-preloaded liposomes, envelope membranes) | 100% transport activity ([4]; malate-preloaded liposomes) | 100% transport activity ([2]; malate-preloaded liposomes, recombinant protein)
O=C(O)CCC(=O)C(=O)O [2-Oxoglutarate] | 46 (±2) % | 44 (±14) % |  |  |  |  | 
N[C@@H](CC(=O)O)C(=O)O [Aspartate] | 12 (±1) % | 13 (±4) % |  |  |  |  | 
N#CC(C#N)=NNc1cccc(Cl)c1 [CCCP] |  |  | the protein import is blocked |  |  |  | 
O=C(O)/C=C/C(=O)O [Fumarate] | 72 (±2) % | 119 (±24) % |  | 65% |  |  | 
N[C@@H](CCC(=O)O)C(=O)O [Glutamate] | 6 (±1) % | 3 (±1) % |  |  |  |  | 
O=C(O)CCCC(=O)O [Glutarate] | 52 (±1) % | 63 (±14) % |  |  |  |  | 
O=C(O)CC(O)C(=O)O (stereo not drawn) [Malate] | 100% | 100% |  | 100% | 21.4 nMol/mg protein per minute | 263 nMol/mg protein per minute | 0.8 nMol/mg protein per minute
O=C(O)CCC(=O)O [Succinate] | 74 (±2) % | 83 (±12) % |  | 63% |  |  | 
